Like-named read-outs stand apart in the source and are kept apart here.
Legend:
[1] = system: Th1 cells (IFNγ production); test: IFNγ production by differentiating Th1 cells in vitro (ELISA); assay type: cell-based, mouse (C57BL/6); conditions: Mus musculus
[2] = system: Th17 cells (CD4+ T cells under Th17 differentiating conditions; IL-17 production); test: IL-17 production by differentiating Th17 cells in vitro (ELISA); assay type: cell-based, mouse (C57BL/6); conditions: Mus musculus
[3] = system: differentiating Th17 cells; test: Inhibition of IL-17 production by CD4+ T cells under Th17 differentiating conditions (ELISA); assay type: cell-based, C57BL/6 mice; conditions: for IC50 Th17 (IL-17 production): differentiating Th17 cells in vitro, 6 days of culture, average ±S.E.; for inhibitory effect on IL-17 production: within the range of concentrations assayed
[4] = system: differentiating Th1 cells; test: Inhibition of IFNγ production during Th1 differentiation (ELISA); assay type: cell-based, C57BL/6 mice; conditions: differentiating Th1 cells in vitro, 6 days of culture, average ±S.E.
Procedure: For comparison studies with Th1 cells, T cells were differentiated in the same in vitro conditions, with only anti-murine IL-4 neutralizing antibody, recombinant murine IL-2 (10 ng/ml, eBioscience) and recombinant murine IL-12p70 (20 ng/ml, BD Biosciences) and CD3/CD28 stimulation. The concentration of IFN in culture supernatants was measured by ELISA (BD Biosciences). L-kynurenine, 3′-hydroxy-DL-kynurenine, 3′-hydroxyanthranilic acid, anthranilic acid and quinolinic acid (Sigma) were dissolved in RPMI medium under agitation at 1 mM concentration and sterile filtered. Tryptophan metabolites were added individually or in combination, in twofold dilutions, to the differentiating medium of Th1 or Th17 cells for the 6 days of culture.

[5] = 144 h, Table II, differentiating Th1 cells, 6 days, average ± S.E., read-out: IC50, IFNγ production, Th1
[6] = 144 h, Table II, differentiating Th17 cells, 6 days, average ± S.E., read-out: IC50, IL-17 production, Th17
[7] = Th17 differentiating conditions, read-out: IC50, IL-17 production

## Nc1ccccc1C(=O)C[C@H](N)C(=O)O [L-Kynurenine, L-kynurenine]
[1]; [5]
  IC50: 154.4 ± 1.2 µM
[2]; [6]
  IC50: 100.8 ± 1 µM
[2]; [7]
  IC50: 100.8 ± 1 µM

## Nc1c(O)cccc1C(=O)CC(N)C(=O)O (racemic) [3′-Hydroxy-DL-kynurenine, 3′-hydroxy-DL-kynurenine]
[1]; [5]
  IC50: 153.8 ± 1.1 µM
[2]; [6]
  IC50: 68.1 ± 1.4 µM
[2]; [7]
  IC50: 68.1 ± 1.4 µM

## Nc1c(O)cccc1C(=O)O [3′-Hydroxyanthranilic acid, 3′-hydroxyanthranilic acid]
[1]; [5]
  IC50: 57.6 ± 1 µM
[1]; read-out: IC50, IFNγ production during Th1 differentiation
  IC50: 57.6 ± 1 µM
[2]; [6]
  IC50: 27.7 ± 3.7 µM
[2]; [7]
  IC50: 27.7 ± 3.7 µM

## Nc1ccccc1C(=O)O [Anthranilic acid, anthranilic acid]
[3]
  IC50 Th17 (IL-17 production): No inhibition
  inhibitory effect on IL-17 production: no inhibitory effect
[4]
  IC50 Th1 (IFNγ production): No inhibition

## O=C(O)c1cccnc1C(=O)O [Quinolinic acid, quinolinic acid]
[3]
  IC50 Th17 (IL-17 production): No inhibition
  inhibitory effect on IL-17 production: no inhibitory effect
[4]; Mus musculus, 144 h
  IC50: 112 ± 1.4 µM
